From patent EP0620225B1, “Cephalosporin derivatives” (Basilea Pharmaceutica AG, priority 1993, dated 1994)
Values after ≈ are worked out from the molar mass of the structure shown.

Key:
Acinetobacter sp.51-156 = test: Antibacterial spectrum (MIC), agar dilution; assay type: cell-based; details: SP.51156, read-out: MIC
Procedure: (§1) In vitro activity was determined by minimum inhibitory concentration in a microorganism spectum by the agar dilution method in Mueller Hinton agar.

C.freundii 43 = test: Antibacterial spectrum (MIC), agar dilution; assay type: cell-based; details: Citrobacter freundii, read-out: MIC
Procedure: as §1

C.freundii 902 = test: Antibacterial spectrum (MIC), agar dilution; assay type: cell-based; details: Citrobacter freundii, read-out: MIC
Procedure: as §1

E.cloacae 908R = test: Antibacterial spectrum (MIC), agar dilution; assay type: cell-based; details: Enterobacter cloacae, read-out: MIC
Procedure: as §1

E.cloacae 908SSi = test: Antibacterial spectrum (MIC), agar dilution; assay type: cell-based; details: Enterobacter cloacae, read-out: MIC
Procedure: as §1

E.coli 25922 = test: Antibacterial spectrum (MIC), agar dilution; assay type: cell-based; details: Escherichia coli, read-out: MIC
Procedure: as §1

E.faecalis 6 = test: Antibacterial spectrum (MIC), agar dilution; assay type: cell-based; details: Enterococcus faecalis, read-out: MIC
Procedure: as §1

H.influenzae 1 = test: Antibacterial spectrum (MIC), agar dilution; assay type: cell-based; details: Haemophilus influenzae, read-out: MIC
Procedure: as §1

K.pneumoniae 418 = test: Antibacterial spectrum (MIC), agar dilution; assay type: cell-based; details: Klebsiella pneumoniae, read-out: MIC
Procedure: as §1

L.monocytogenes BK23 = test: Antibacterial spectrum (MIC), agar dilution; assay type: cell-based; details: Listeria monocytogenes, read-out: MIC
Procedure: as §1

M.catarrhalis RA21 = test: Antibacterial spectrum (MIC), agar dilution; assay type: cell-based; details: Moraxella catarrhalis, read-out: MIC
Procedure: as §1

M.morganii 6H-137 = test: Antibacterial spectrum (MIC), agar dilution; assay type: cell-based; details: Morganella morganii, 6H137, read-out: MIC
Procedure: as §1

N.meningitidis 69480 = test: Antibacterial spectrum (MIC), agar dilution; assay type: cell-based; details: Neisseria meningitidis, read-out: MIC
Procedure: as §1

P.aeruginosa 27853 = test: Antibacterial spectrum (MIC), agar dilution; assay type: cell-based; details: Pseudomonas aeruginosa, read-out: MIC
Procedure: as §1

P.mirabilis 2117 = test: Antibacterial spectrum (MIC), agar dilution; assay type: cell-based; details: Proteus mirabilis, read-out: MIC
Procedure: as §1

P.vulgaris 1028 = test: Antibacterial spectrum (MIC), agar dilution; assay type: cell-based; details: Proteus vulgaris, read-out: MIC
Procedure: as §1

S.agalactiae QK44 = test: Antibacterial spectrum (MIC), agar dilution; assay type: cell-based; details: Streptococcus agalactiae, read-out: MIC
Procedure: as §1

S.aureus 6538 = test: Antibacterial spectrum (MIC), agar dilution; assay type: cell-based; details: Staphylococcus aureus, read-out: MIC
Procedure: as §1

S.aureus 734 MRSA = test: Antibacterial spectrum (MIC), agar dilution; assay type: cell-based; details: Staphylococcus aureus, read-out: MIC
Procedure: as §1

S.marcescens 69438 = test: Antibacterial spectrum (MIC), agar dilution; assay type: cell-based; details: Serratia marcescens, read-out: MIC
Procedure: as §1

S.pneumoniae Q19 = test: Antibacterial spectrum (MIC), agar dilution; assay type: cell-based; details: Streptococcus pneumoniae, read-out: MIC
Procedure: as §1

S.pyogenes B15 = test: Antibacterial spectrum (MIC), agar dilution; assay type: cell-based; details: Streptococcus pyogenes, read-out: MIC
Procedure: as §1

S.viridans group 016 = test: Antibacterial spectrum (MIC), agar dilution; assay type: cell-based; details: Streptococcus viridans, read-out: MIC
Procedure: as §1

X.maltophilia 1AC739 = test: Antibacterial spectrum (MIC), agar dilution; assay type: cell-based; details: Stenotrophomonas maltophilia, read-out: MIC
Procedure: as §1

S.aureus MSSA = test: In vitro activity against selected species (MIC50, MIC90, range); assay type: cell-based; details: Staphylococcus aureus, medium MHB (Mueller Hinton Broth); for MIC: MIC range
S.pneumoniae PEN-R = test: as above; assay type: cell-based; details: Streptococcus pneumoniae; for MIC: MIC range
S.viridans group = test: as above; assay type: cell-based; details: Streptococcus viridans; for MIC: MIC range
E.faecalis [1] = test: as above; assay type: cell-based; details: Enterococcus faecalis, medium MHA; for MIC: MIC range
Procedure: as §1

S.aureus MRSA = test: as above; assay type: cell-based; details: Staphylococcus aureus, medium MHA (Mueller Hinton Agar) +NaCl; for MIC: MIC range
Procedure: as §1

E.faecium = test: In vitro activity against selected species (MIC50, range); assay type: cell-based; details: Enterococcus faecium, medium MHA; for MIC: MIC range
Procedure: as §1

M.catarrhalis = test: In vitro activity against selected species (MIC50, MIC90, range); assay type: cell-based; details: Moraxella catarrhalis, medium IsoB; for MIC: MIC range
Escherichia coli 25922 = test: Efficacy against systemic infections (septicemia) in mice; assay type: in vivo; details: 96 h, survival day 4
How it was run: (§2)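 Swiss albino mice (16–20 g) infected i.p. with 4–10× the 48-h LD50 of each strain; compound given p.o. or s.c. at 1 and 3 h post-challenge, plus 5 h for P. aeruginosa BA. Five mice per group; ED50 (mg/kg) by probit analysis of day-4 survival.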

S.aureus Smith = test: as above; assay type: in vivo; details: Staphylococcus aureus, 96 h, sc 1 and 3 h after challenge, survival day 4
How it was run: as §2

E.faecalis [2] = test: In vitro activity against selected species (MIC50, MIC90, range); assay type: cell-based; details: Enterococcus faecalis, medium IsoB; for MIC: MIC range
[3] = medium IsoB (Isosensitest Broth)
[4] = Escherichia coli 25922, po (orally) 1 and 3 h after challenge
[5] = Escherichia coli, E.coli 25922, sc 1 and 3 h after challenge

CON1CC/C(=C\C2=C(C(=O)O)N3C(=O)[C@@H](NC(=O)/C(=N\O)c4csc(N)n4)[C@H]3SC2)C1=O [G]
MIC (Acinetobacter sp.51-156): 8 µg/mL (≈ 16.2 µM) | MIC (C.freundii 43): 4 µg/mL (≈ 8.09 µM) | MIC (C.freundii 902): ≤ 0.06 µg/mL | MIC (E.cloacae 908R): 32 µg/mL (≈ 64.7 µM) | MIC (E.cloacae 908SSi): 0.25 µg/mL (≈ 0.506 µM) | MIC (E.coli 25922): ≤ 0.06 µg/mL | MIC (E.faecalis 6): 1 µg/mL (≈ 2.02 µM) | MIC (H.influenzae 1): 0.12 µg/mL (≈ 0.243 µM) | MIC (K.pneumoniae 418): ≤ 0.06 µg/mL | MIC (L.monocytogenes BK23): 2 µg/mL (≈ 4.04 µM) | MIC (M.catarrhalis RA21): 16 µg/mL (≈ 32.4 µM) | MIC (M.morganii 6H-137): ≤ 0.06 µg/mL | MIC (N.meningitidis 69480): ≤ 0.06 µg/mL | MIC (P.aeruginosa 27853): 32 µg/mL (≈ 64.7 µM) | MIC (P.mirabilis 2117): ≤ 0.06 µg/mL | MIC (P.vulgaris 1028): 2 µg/mL (≈ 4.04 µM) | MIC (S.agalactiae QK44): 0.25 µg/mL (≈ 0.506 µM) | MIC (S.aureus 6538): 0.5 µg/mL (≈ 1.01 µM) | MIC (S.aureus 734 MRSA): 16 µg/mL (≈ 32.4 µM) | MIC (S.marcescens 69438): 1 µg/mL (≈ 2.02 µM) | MIC (S.pneumoniae Q19): ≤ 0.06 µg/mL | MIC (S.pyogenes B15): ≤ 0.06 µg/mL | MIC (S.viridans group 016): 0.5 µg/mL (≈ 1.01 µM) | MIC (X.maltophilia 1AC739): > 32 µg/mL | MIC (S.aureus MSSA): 1 to 2 µg/mL (≈ 2.02 to 4.04 µM) | MIC50 (S.aureus MSSA): 1 µg/mL (≈ 2.02 µM) | MIC90 (S.aureus MSSA): 1 µg/mL (≈ 2.02 µM) | MIC (S.pneumoniae PEN-R; [3]): 0.1 to 0.5 µg/mL (≈ 0.202 to 1.01 µM) | MIC (S.pneumoniae PEN-R; medium IsoB + 20% serum): 0.12 to 0.5 µg/mL | MIC50 (S.pneumoniae PEN-R; [3]): 0.25 µg/mL (≈ 0.506 µM) | MIC90 (S.pneumoniae PEN-R; [3]): 0.5 µg/mL (≈ 1.01 µM) | MIC50 (S.pneumoniae PEN-R; medium IsoB + 20% serum): 0.5 µg/mL | MIC50 (S.viridans group): 2 µg/mL (≈ 4.04 µM) | MIC90 (S.viridans group): 2 µg/mL (≈ 4.04 µM) | MIC (S.viridans group): 0.12 to 8 µg/mL (≈ 0.243 to 16.2 µM) | MIC (E.faecalis [1]): 0.5 to 2 µg/mL (≈ 1.01 to 4.04 µM) | MIC50 (E.faecalis [1]): ≤ 0.5 µg/mL | MIC90 (E.faecalis [1]): 2 µg/mL (≈ 4.04 µM) | MIC (S.aureus MRSA): 8 to 16 µg/mL (≈ 16.2 to 32.4 µM) | MIC50 (S.aureus MRSA): 16 µg/mL (≈ 32.4 µM) | MIC90 (S.aureus MRSA): 16 µg/mL (≈ 32.4 µM) | MIC (E.faecium): 1 to 8 µg/mL (≈ 2.02 to 16.2 µM) | MIC50 (E.faecium): 4 µg/mL (≈ 8.09 µM) | MIC (M.catarrhalis): 1 to 32 µg/mL (≈ 2.02 to 64.7 µM) | MIC50 (M.catarrhalis): 4 µg/mL (≈ 8.09 µM) | MIC90 (M.catarrhalis): 16 µg/mL (≈ 32.4 µM) | ED50 (Escherichia coli 25922; [4]): ~3 mg/kg | ED50 (Escherichia coli 25922; [5]): < 0.1 mg/kg | ED50 (S.aureus Smith): < 1 mg/kg | MIC (E.faecalis [2]): 0.25 to 2 µg/mL (≈ 0.506 to 4.04 µM) | MIC50 (E.faecalis [2]): 0.5 µg/mL (≈ 1.01 µM) | MIC90 (E.faecalis [2]): 2 µg/mL (≈ 4.04 µM)

COc1ccc(N2CC/C(=C\C3=C(C(=O)O)N4C(=O)[C@@H](NC(=O)/C(=N\O)c5csc(N)n5)[C@H]4SC3)C2=O)cc1 [I]
MIC (Acinetobacter sp.51-156): 32 µg/mL (≈ 56.1 µM) | MIC (C.freundii 43): 8 µg/mL (≈ 14 µM) | MIC (C.freundii 902): 0.25 µg/mL (≈ 0.438 µM) | MIC (E.cloacae 908R): 32 µg/mL (≈ 56.1 µM) | MIC (E.cloacae 908SSi): 0.5 µg/mL (≈ 0.876 µM) | MIC (E.coli 25922): 0.12 µg/mL (≈ 0.21 µM) | MIC (E.faecalis 6): 0.25 µg/mL (≈ 0.438 µM) | MIC (H.influenzae 1): 0.25 µg/mL (≈ 0.438 µM) | MIC (K.pneumoniae 418): 0.12 µg/mL (≈ 0.21 µM) | MIC (L.monocytogenes BK23): 2 µg/mL (≈ 3.51 µM) | MIC (M.catarrhalis RA21): > 16 µg/mL | MIC (M.morganii 6H-137): ≤ 0.06 µg/mL | MIC (N.meningitidis 69480): ≤ 0.06 µg/mL | MIC (P.aeruginosa 27853): > 32 µg/mL | MIC (P.mirabilis 2117): 0.12 µg/mL (≈ 0.21 µM) | MIC (P.vulgaris 1028): 2 µg/mL (≈ 3.51 µM) | MIC (S.agalactiae QK44): 0.25 µg/mL (≈ 0.438 µM) | MIC (S.aureus 6538): 0.5 µg/mL (≈ 0.876 µM) | MIC (S.aureus 734 MRSA): 8 µg/mL (≈ 14 µM) | MIC (S.marcescens 69438): 1 µg/mL (≈ 1.75 µM) | MIC (S.pneumoniae Q19): ≤ 0.06 µg/mL | MIC (S.pyogenes B15): ≤ 0.06 µg/mL | MIC (S.viridans group 016): 0.5 µg/mL (≈ 0.876 µM) | MIC (X.maltophilia 1AC739): > 32 µg/mL | MIC (S.aureus MSSA): 0.5 to 1 µg/mL (≈ 0.876 to 1.75 µM) | MIC50 (S.aureus MSSA): 0.5 µg/mL (≈ 0.876 µM) | MIC90 (S.aureus MSSA): 0.5 µg/mL (≈ 0.876 µM) | MIC (S.pneumoniae PEN-R; [3]): 0.12 to 0.25 µg/mL (≈ 0.21 to 0.438 µM) | MIC (S.pneumoniae PEN-R; medium IsoB + 20% serum): 0.12 to 0.5 µg/mL | MIC50 (S.pneumoniae PEN-R; [3]): ≤ 0.12 µg/mL | MIC90 (S.pneumoniae PEN-R; [3]): ≤ 0.12 µg/mL | MIC50 (S.pneumoniae PEN-R; medium IsoB + 20% serum): 0.25 µg/mL | MIC50 (S.viridans group): 0.5 µg/mL (≈ 0.876 µM) | MIC90 (S.viridans group): 2 µg/mL (≈ 3.51 µM) | MIC (S.viridans group): 0.12 to 4 µg/mL (≈ 0.21 to 7.01 µM) | MIC (E.faecalis [1]): 0.5 to 1 µg/mL (≈ 0.876 to 1.75 µM) | MIC50 (E.faecalis [1]): ≤ 0.5 µg/mL | MIC90 (E.faecalis [1]): 1 µg/mL (≈ 1.75 µM) | MIC (S.aureus MRSA): 16 to 32 µg/mL (≈ 28 to 56.1 µM) | MIC50 (S.aureus MRSA): 16 µg/mL (≈ 28 µM) | MIC90 (S.aureus MRSA): 32 µg/mL (≈ 56.1 µM) | MIC (E.faecium): 0.1 to 16 µg/mL (≈ 0.175 to 28 µM) | MIC50 (E.faecium): 2 µg/mL (≈ 3.51 µM) | MIC (M.catarrhalis): 1 to 64 µg/mL (≈ 1.75 to 112 µM) | MIC50 (M.catarrhalis): 8 µg/mL (≈ 14 µM) | MIC90 (M.catarrhalis): 16 µg/mL (≈ 28 µM) | ED50 (Escherichia coli 25922; [4]): 4.5 mg/kg | ED50 (Escherichia coli 25922; [5]): < 0.3 mg/kg | ED50 (S.aureus Smith): < 1 mg/kg | MIC (E.faecalis [2]): 0.25 to 1 µg/mL (≈ 0.438 to 1.75 µM) | MIC50 (E.faecalis [2]): 0.5 µg/mL (≈ 0.876 µM) | MIC90 (E.faecalis [2]): 1 µg/mL (≈ 1.75 µM)
